ChEMBL document CHEMBL1146649, “New highly active taxoids from 9 beta-dihydrobaccatin-9,10-acetals. Part 5” (2004)
In brackets after ≈: the same amount, converted by molar mass.

What was measured:
Assay type in all cases: functional
P388 = assay: Concentration required to inhibit mouse P388 cell line growth by 50% at 72 hr continuous exposure; conditions: P388, 72 h
PC-6 [1] = assay: Concentration required to inhibit human PC-6 cell line growth by 50% at 72 hr continuous exposure; conditions: PC-6, 72 h
PC-6 [2] = assay: Concentration required to inhibit human PC-6/VP1-1 cell line growth by 50% at 72 hr exposure; conditions: PC-6, 72 h
PC-12 = assay: Concentration required to inhibit human PC-12 cell line growth by 50% at 72 hr continuous exposure; conditions: PC-12, 72 h
PC-6 [3] = assay: Concentration required to inhibit human PC-6/VCR29-9 cell line growth by 50% at 72 hr exposure; conditions: PC-6, 72 h
PC-6 [4] = assay: Concentration that inhibited the growth of PC-6/VCR29-9 cells by 50% at 72 hr continuous exposure; conditions: Homo sapiens, PC-6, 72 h
B16 [5] = assay: Effective dose of perorally administered compound against B16 melanoma BL6 cells implanted into mice; conditions: Mus musculus, B16, po
B16 [6] = assay: Effective dose of intravenously administered compound against B16 melanoma BL6 cells implanted into mice; conditions: Mus musculus, B16, iv
Mus musculus = assay: Effective dose of perorally administered compound against B16 melanoma BL6 cells implanted into mice; range is 11.9-27.6; conditions: B16, po

SMILES	GI50 (P388) [ng/mL]	GI50 (PC-6 [1]) [ng/mL]	GI50 (PC-6 [2]) [ng/mL]	GI50 (PC-12) [ng/mL]	GI50 (PC-6 [3]) [ng/mL]	GI50 (PC-6 [4]) [ng/mL]	ED50 (B16 [5]) [mg/kg]	ED50 (B16 [6]) [mg/kg]	ED50 (Mus musculus) [mg/kg]
CC(=O)O[C@@]12CO[C@@H]1CC[C@@]1(C)[C@@H]3O[C@H](CN(C)C)O[C@@H]3C3=C(C)[C@@H](OC(=O)[C@H](O)[C@@H](NC(=O)OC(C)(C)C)c4cscn4)C[C@@](O)([C@@H](OCc4ccccc4)[C@@H]12)C3(C)C	0.06 (≈ 0.0701 nM)	0.35 (≈ 0.409 nM)	17.3 (≈ 20.2 nM)	0.19 (≈ 0.222 nM)	–	1.1 (≈ 1.28 nM)	–	–	–
CC(=O)O[C@@]12CO[C@@H]1CC[C@@]1(C)[C@@H]3O[C@H](CN4CCOCC4)O[C@@H]3C3=C(C)[C@@H](OC(=O)[C@H](O)[C@@H](NC(=O)OC(C)(C)C)c4ccc(F)cn4)C[C@@](O)([C@@H](OCc4ccccc4)[C@@H]12)C3(C)C	–	–	–	–	–	–	7.9	3.5	–
CC(=O)O[C@@]12CO[C@@H]1CC[C@@]1(C)[C@@H]3O[C@H](CNC4CC4)O[C@@H]3C3=C(C)[C@@H](OC(=O)[C@H](O)[C@@H](NC(=O)OC(C)(C)C)c4nccs4)C[C@@](O)([C@@H](OCc4ccccc4)[C@@H]12)C3(C)C	0.06 (≈ 0.0691 nM)	0.42 (≈ 0.484 nM)	39.4 (≈ 45.4 nM)	0.12 (≈ 0.138 nM)	1.16 (≈ 1.34 nM)	–	–	–	–
CC(=O)O[C@@]12CO[C@@H]1CC[C@@]1(C)[C@@H]3O[C@H](CN(C)C)O[C@@H]3C3=C(C)[C@@H](OC(=O)[C@H](O)[C@@H](NC(=O)OC(C)(C)C)C(C)(C)C)C[C@@](O)([C@@H](OCc4ccccc4)[C@@H]12)C3(C)C	0.73 (≈ 0.881 nM)	0.67 (≈ 0.808 nM)	15.7 (≈ 18.9 nM)	0.5 (≈ 0.603 nM)	1.42 (≈ 1.71 nM)	–	11.9	11.9	–

More lines, in order of falling GI50 (P388), values ahead:

GI50 (P388) [ng/mL]	SMILES	GI50 (PC-6 [1]) [ng/mL]	GI50 (PC-6 [2]) [ng/mL]	GI50 (PC-12) [ng/mL]	GI50 (PC-6 [3]) [ng/mL]	GI50 (PC-6 [4]) [ng/mL]	ED50 (B16 [5]) [mg/kg]	ED50 (B16 [6]) [mg/kg]	ED50 (Mus musculus) [mg/kg]
0.6 (≈ 0.718 nM)	CNC[C@@H]1O[C@@H]2C3=C(C)[C@@H](OC(=O)[C@H](O)[C@@H](NC(=O)OC(C)(C)C)c4ccccn4)C[C@@](O)([C@@H](OCc4ccccc4)[C@H]4[C@@](C)(CC[C@H]5OC[C@]54OC(C)=O)[C@@H]2O1)C3(C)C	0.54 (≈ 0.646 nM)	265 (≈ 317 nM)	5.82 (≈ 6.96 nM)	43.2 (≈ 51.7 nM)	–	–	–	–
0.56 (≈ 0.639 nM)	CC(=O)O[C@@]12CO[C@@H]1CC[C@@]1(C)[C@@H]3O[C@H](CNC4CCC4)O[C@@H]3C3=C(C)[C@@H](OC(=O)[C@H](O)[C@@H](NC(=O)OC(C)(C)C)c4ccccn4)C[C@@](O)([C@@H](OCc4ccccc4)[C@@H]12)C3(C)C	0.83 (≈ 0.947 nM)	81.7 (≈ 93.3 nM)	1.45 (≈ 1.66 nM)	4.88 (≈ 5.57 nM)	–	–	7.9	27.6
0.17 (≈ 0.197 nM)	CC(=O)O[C@@]12CO[C@@H]1CC[C@@]1(C)[C@@H]3O[C@H](CNC4CC4)O[C@@H]3C3=C(C)[C@@H](OC(=O)[C@H](O)[C@@H](NC(=O)OC(C)(C)C)c4ccccn4)C[C@@](O)([C@@H](OCc4ccccc4)[C@@H]12)C3(C)C	0.54 (≈ 0.626 nM)	49.4 (≈ 57.3 nM)	0.3 (≈ 0.348 nM)	2.22 (≈ 2.58 nM)	–	–	–	–
